# Experimental data taken from patent US12180509B2, “Methods for reprograming non-pluripotent cells into pluripotent stem cells” (Beihao Stem Cell and Regenerative Medicine Research …, priority 2015, dated 2024).
# Where a name gives a salt, the structure may show the parent alone.
# Tests used:
# Assay type in all cases: cell-based, mouse
# [1] = test system: MEFs from OG mice; assay: Screen for small molecules that facilitate late reprogramming (DOX-inducible Oct4 plus VC6T); conditions: VC6T plus DOX-induced Oct4 for the first 4-8 days
# Procedure: To identify small molecules that facilitate late reprogramming, a doxycycline (DOX)-inducible Oct4 expression screening system was used (Li, et al., Cell Res. 21:196-204 (2011)).
# MEFs from OG mice were plated as described above and infected with Fu-tet-hOct4 and FUdeltaGW-rtTA lentiviruses. The induction protocol was carried out as described above.
# After infection, the culture medium was replaced with LIF-free ESC culture medium containing VC6T (VPA, CHIR99021, 616452, Tranylcypromine) plus DOX (1 μg/ml). Alternatively, MEFs harboring DOX-inducible Oct4 from Tet-On POUSF1 mouse strain B6; 129-Gt (ROSA)26Sor^tm1(TrtTA*M2)Jae Colla1^tm2(tetO-Pou5f1)Jae/J were used in this screen (Li, et al., Cell Res., 21:196-204 (2011)). These two DOX-inducible systems were only used in this screen, but not in complete chemical reprogramming. Individual chemicals from small-molecule libraries were added to each well. Small molecules were added at different culture time points. 5-aza-C(5-Azacytidine) and DZNep were added from day 8. The medium and chemicals were changed every 4 days; DOX was added only for the first 4-8 days. Chemical treatments were continued for 16-24 days or until GFP-positive colonies appeared. Primary hits were selected for further confirmation and optimization. CiPSC colonies were counted on day 44. […]
# [2] = test system: pluripotency-related genes and XEN marker genes; assay: Real-time PCR of pluripotency, XEN and MET genes during chemical reprogramming; conditions: for expression of XEN marker genes (Sall4, Gata4, Sox17): stage 1, fibroblasts to XEN-like cells; for endogenous expression of Sall4 and Sox2 on withdrawal of the chemical: chemicals withdrawn from VC6TF, after 12 days
# Procedure: Total RNA from an entire well of cultured cells was isolated using the RNeasy Plus MiniKit (QIAGEN). For a single colony, RNA was isolated using the RNeasy Micro Kit (QIAGEN). RNA was converted to cDNA using TransScript First-Strand cDNA Synthesis SuperMix (TransGen Biotech). PCR was carried out using Power SYBRR Green PCR Master Mix (Applied Biosystems) and performed on an ABI Prism 7300 Sequence Detection System. The data were analyzed using the delta-delta Ct method.
# [3] = test system: MEFs; assay: CiPSC induction from MEFs with small-molecule combinations (no XEN priming); conditions: for replacement of DZNep in CiPSC generation: SAH hydrolase inhibitor in combination with VC6TF
# Procedure: The initial cells (MEFs, MNFs, MAFs or ADSCs) were seeded at a density of 50,000 cells per well of a 6-well plate or 300,000 cells per 100 mm dish. On the next day (day 0), the original medium was replaced with chemical reprogramming medium containing the small-molecule combinations. The small-molecule combinations-containing medium was changed every 4 days. On day 12, these cells were washed in PBS and digested with 0.25% Trypsin-EDTA (Invitrogen) at 37° C. for 3-5 min. After neutralization, the cell clumps were dissociated into single cells by thorough pipetting. The cells were harvested (300,000-1,000,000 cells per well of a 6-well plate) and replated at a density of 300,000-500,000 cells per well of a 6-well plate in the chemical reprogramming medium containing the small-molecule combinations. DZNep was added to the cell cultures on day 16 or day 20. On day 28-36, the small-molecule combinations including DZNep were removed. Meanwhile, the chemical reprogramming medium was replaced with 2i-medium. After another 8-12 days, 2i-competent, ESC-like and GFP-positive colonies were counted as primary CiPSC colonies. For CiPSC induction from wild-type cells without OG reporter, 2i-competent and ESC-like colonies were counted as primary CiPSC colonies. These CiPSC colonies were picked up for expansion and characterization. Alternatively, CiPSCs could be induced without replating on day 12.
# [4] = test system: MEFs from OG mice; assay: Screen for chemical substitutes of Oct4 in OG-MEFs infected with Sox2, Klf4 and c-Myc; conditions: OG-MEFs with viral expression of Sox2, Klf4 and c-Myc, no Oct4
# Procedure: To identify chemical substitutes of Oct4, MEFs from OG mice were plated at a density of 20,000 cells per well of a 12-well plate and infected with lentiviruses encoding Sox2, Klf4 and c-Myc. After infection, the medium was replaced with LIF-free ESC culture medium. Individual chemicals from small-molecule libraries were added to each well. The medium and chemicals were changed every 4 days. Chemical treatments were continued for 14-20 days or until GFP-positive colonies appeared. Primary hits were selected for further confirmation and optimization.
# Small molecules that enable reprogramming in the absence of Oct4 were searched using Oct4 promoter-driven green fluorescent protein (GFP) expression (OG) mouse embryonic fibroblasts (MEFs), with viral expression of Sox2, Klf4, and c-Myc.
# [5] = test system: cAMP; assay: Intracellular cAMP quantification (Direct cAMP ELISA); conditions: MEF, FSK 10 μM versus DMSO control
# Procedure: (§1) CAMP was quantified using the Direct cAMP ELISA Kit (Enzo) according to the manufacturer's protocol. For SAM and SAH quantification, cultured cells (1,000,000 cells) were trypsinized and homogenized by ultrasonication in 200 μl PBS. Then 40 μl of 400 mg/ml TCA was added. Cell extracts were incubated on ice for 30 min. After centrifugation at 4° C. (13,000 rpm, 15 min), the supernatants were filtered through a 0.22 μm filter and analyzed by high-performance liquid chromatography (HPLC, Shimadzu) with HILIC columns (Waters).
# The effect of inhibiting adenylate cyclase on the number of colonies generated by VC6TFZ was tested. […] The effect of replacing FSK with the cAMP analog (DBcAMP), alone or in combination with phosphodiesterase inhibitors, IBMX, or the phosphodiesterase inhibitor, rolipram and IBMX, on cell reprograming was also tested. Both DBcAMP and IBMX were used at 50 μM in the combination treatment.
# [6] = test system: intracellular levels SAH to SAM; assay: SAM and SAH quantification by HPLC; conditions: during chemical reprogramming, relative to MEFs
# Procedure: as §1
# [7] = test system: Oct4 promoter; assay: DNA methylation (bisulfite sequencing) and H3K9 methylation (ChIP) at the Oct4 promoter; conditions: presence versus absence of DZNep, day 32
# Procedure: Genomic DNA was modified by bisulfite treatment and purified using the MethylCode™ Bisulfite Conversion Kit (Invitrogen) according to the manufacturer's protocol. The amplified fragments were cloned into the pEASY-blunt Vector (Transgene). Ten randomly picked clones from each sample were sequenced. ChIP was performed using the EZ-Magna ChIP A/G Kit (Millipore) according to the manufacturer's protocol. Anti-H3K27me3 (Abcam, ab6002), anti-H3K9me2 (Millipore, 07-441), anti-H3K4me3 (Abcam, ab8580) and anti-H3K9ac (Abcam, ab4441) antibodies were used. Following immunoprecipitation, DNA was analyzed by real-time PCR.
compound,measurement,setting,value
O=C(O)[C@@H](Cc1c[nH]c2ccccc12)N1C(=O)C2=CCCC=C2C1=O [RG108],small molecule hit facilitating late reprogramming,[1],identified in this screen
COc1ccc(C2CNC(=O)C2)cc1OC1CCCC1 (centres unmarked) [Rolipram],small molecule hit facilitating late reprogramming,[1],identified in this screen
"CC(C)N(CCCNC(=O)Nc1ccc(C(C)(C)C)cc1)C[C@H]1O[C@@H](n2ccc3c(N)ncnc32)[C@H](O)[C@@H]1O [EPZ004777, 1-(3-((((2R,3S,4R,5R)-5-(4-amino-7H-pyrrolo[2,3-d]pyrimidin-7-yl)-3,4-dihydroxytetrahydrofuran-2-yl)methyl)(isopropyl)amino)propyl)-3-(4-(tert-butyl)phenyl)urea]","expression of XEN marker genes (Sall4, Gata4, Sox17)",[2],promote the expression of XEN marker genes
"CC1(C)CCC(C)(C)c2cc(C(=O)Nc3ccc(C(=O)O)cc3)ccc21 [AM580, 4-[(5,6,7,8-Tetrahydro-5,5,8,8-tetramethyl-2-naphthalenyl)carboxamido]benzoic acid]","expression of XEN marker genes (Sall4, Gata4, Sox17)",[2],promote the expression of XEN marker genes
Nc1ncn([C@@H]2O[C@H](CO)[C@@H](O)[C@H]2O)c(=O)n1 [5-Azacytidine],small molecule hit facilitating late reprogramming,[1],identified in this screen
"Nc1ncnc2c1ncn2C(C=O)OC(C=O)CO (centres unmarked) [Adox, Adenosine, periodate oxidized]",replacement of DZNep in CiPSC generation,[3],useful in replacing DZNep in reprogramming
"C[C@H]1O[C@@H](n2cnc3c(N)ncnc32)C[C@@H]1O [2′5′ddAdo, 2′,5′-Dideoxyadenosine]",number of colonies formed by VC6TFZ,[3]; inhibition of adenylate cyclase during VC6TFZ treatment,decreased the number of colonies
C=C[C@@]1(C)CC(=O)[C@]2(O)[C@@]3(C)[C@@H](O)CCC(C)(C)[C@@H]3[C@H](O)[C@H](OC(C)=O)[C@@]2(C)O1 [Forskolin],chemical substitute for Oct4 (iPSC induction),[4],identified as chemical “substitutes” for Oct4
same,small molecule hit facilitating late reprogramming,[1],identified in this screen
same,intracellular cAMP level,[5],significantly elevates the CAMP level
same,endogenous expression of Sall4 and Sox2 on withdrawal of the chemical,[2],essential in activating the endogenous expression of Sall4 and Sox2
"Nc1ncnc2c1ncn2[C@@H]1C=C(CO)[C@@H](O)[C@H]1O [NEPA, (−)-Neplanocin A]",replacement of DZNep in CiPSC generation,[3],useful in replacing DZNep in reprogramming
"Cc1cnc(-c2cnc(NCCNc3ccc(C#N)cn3)nc2-c2ccc(Cl)cc2Cl)[nH]1 [CHIR99021, 6-[[2-[[4-(2,4-Dichlorophenyl)-5-(5-methyl-1H-imidazol-2-yl)-2-pyrimidinyl]amino]ethyl]amino]-3-pyridinecarbonitrile]",endogenous expression of Sall4 and Sox2 on withdrawal of the chemical,[2],essential in activating the endogenous expression of Sall4 and Sox2
same,"increase in the expression of Gata4, Sox17 and EpCAM","[2]; increased concentration of CHIR99021 (20 μM versus 10 μM) in VC6TF, 12 days",up to 10 fold
"Cc1[nH]c2ccc(O)cc2c1CCN [2-Me-5HT, 2-Methyl-5-hydroxytryptamine hydrochloride]",chemical substitute for Oct4 (iPSC induction),[4],identified as chemical “substitutes” for Oct4
"Nc1nccc2c1ncn2[C@@H]1C=C(CO)[C@@H](O)[C@H]1O [DZNep, 3-deazaneplanocin A]",small molecule hit facilitating late reprogramming,[1],identified in this screen
same,concentration ratio of SAH to SAM,[6],elevates the concentration ratio of SAH to S-adenosylmethionine (SAM)
same,DNA methylation and H3K9 methylation at the Oct4 promoter,[7],significantly decreased
same,Oct4 expression,[2]; after addition of DZNep in the late phase of chemical reprogramming,enhanced significantly
"C/C(=C\c1ccc(C(=O)O)cc1)c1ccc2c(c1)C(C)(C)CCC2(C)C [TTNPB, 4-[(E)-2-(5,6,7,8-Tetrahydro-5,5,8,8-tetramethyl-2-naphthalenyl)-1-propenyl]benzoic acid]","chemical reprogramming efficiency enhanced, factor",[3]; TTNPB as booster added to the chemical cocktail (C6FZ or VC6TFZ) in MEFs,≤ 40
same,reprogramming frequency,"[3]; with TTNPB, comparable to transcription factor-induced reprogramming",up to 0.2%
"NC(=O)c1ccc(-c2nc(-c3ccc4c(c3)OCCO4)c(-c3ccccn3)[nH]2)cc1 [D4476, 4-[4-(2,3-Dihydro-1,4-benzodioxin-6-yl)-5-(2-pyridinyl)-1H-imidazol-2-yl]benzamide]",chemical substitute for Oct4 (iPSC induction),[4],identified as chemical “substitutes” for Oct4
"CCCC(=O)[O-].[Na+] [sodium butyrate, Sodium butyrate]",small molecule hit facilitating late reprogramming,[1],identified in this screen
"Cc1cccc(-c2n[nH]cc2-c2ccc3ncccc3n2)n1 [compound 616452, 2-(3-(6-Methylpyridin-2-yl)-1H-pyrazol-4-yl)-1,5-naphthyridine]",endogenous expression of Sall4 and Sox2 on withdrawal of the chemical,[2],essential in activating the endogenous expression of Sall4 and Sox2
CCCCC[C@H](O)/C=C/[C@H]1[C@H](O)CC(=O)[C@@H]1C/C=C\CCCC(=O)O [Prostaglandin E2],small molecule hit facilitating late reprogramming,[1],identified in this screen
"Nc1nccc2c1ncn2[C@@H]1O[C@H](CO)[C@@H](O)[C@H]1O [DZA, 3-Deazaadenosine]",replacement of DZNep in CiPSC generation,[3],useful in replacing DZNep in reprogramming
